PubChem BioAssay AID248 (DTP/NCI, 2004)
Toxic doses and inconclusive results are not listed.

Tested on: L1210 leukemia ip in BDF1 mice, survival T/C
Test: NCI In Vivo Anticancer Drug Screen. Data for tumor model L1210 Leukemia (intraperitoneal) in B6D2F1 (BDF1) mice
Settings: endpoint: mean survival time, higher = longer survival
Method in brief: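 Transplantable tumor model; survival measured in treated vs vehicle control mice. Value = treated/control.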

[1] = dose: 100.0 mg/kg/injection, schedule: Q01DX009 (ip), vehicle: Klucel (hydroxypropylcellulose) (HPC)
[2] = dose: 100.0 mg/kg/injection, schedule: Q04DX003 (ip), vehicle: Klucel (hydroxypropylcellulose) (HPC)
[3] = dose: 200.0 mg/kg/injection, schedule: Q01DX009 (ip), vehicle: Klucel (hydroxypropylcellulose) (HPC)
[4] = dose: 200.0 mg/kg/injection, schedule: Q04DX003 (ip), vehicle: Klucel (hydroxypropylcellulose) (HPC)
[5] = dose: 400.0 mg/kg/injection, schedule: Q01DX009 (ip), vehicle: Klucel (hydroxypropylcellulose) (HPC)
[6] = dose: 400.0 mg/kg/injection, schedule: Q04DX003 (ip), vehicle: Klucel (hydroxypropylcellulose) (HPC)
[7] = dose: 100.0 mg/kg/injection, schedule: Q01DX009 (ip), vehicle: saline with Tween-80
[8] = dose: 200.0 mg/kg/injection, schedule: Q01DX009 (ip), vehicle: saline with Tween-80
[9] = dose: 400.0 mg/kg/injection, schedule: Q01DX009 (ip), vehicle: saline with Tween-80
[10] = dose: 100.0 mg/kg/injection, schedule: Q01DX001 (ip), vehicle: saline
[11] = dose: 200.0 mg/kg/injection, schedule: Q01DX001 (ip), vehicle: saline
[12] = dose: 400.0 mg/kg/injection, schedule: Q01DX001 (ip), vehicle: saline
[13] = dose: 100.0 mg/kg/injection, schedule: Q04DX002 (ip), vehicle: Klucel (hydroxypropylcellulose) (HPC)
[14] = dose: 200.0 mg/kg/injection, schedule: Q04DX002 (ip), vehicle: Klucel (hydroxypropylcellulose) (HPC)
[15] = dose: 50.0 mg/kg/injection, schedule: Q01DX001 (ip), vehicle: saline
[16] = dose: 75.0 mg/kg/injection, schedule: Q01DX001 (ip), vehicle: saline
[17] = dose: 150.0 mg/kg/injection, schedule: Q01DX001 (ip), vehicle: saline
[18] = dose: 100.0 mg/kg/injection, schedule: Q04DX002 (ip), vehicle: saline with Tween-80
[19] = dose: 200.0 mg/kg/injection, schedule: Q04DX002 (ip), vehicle: saline with Tween-80
[20] = dose: 400.0 mg/kg/injection, schedule: Q04DX002 (ip), vehicle: saline with Tween-80
[21] = dose: 100.0 mg/kg/injection, schedule: Q04DX003 (ip), vehicle: saline with Tween-80
[22] = dose: 200.0 mg/kg/injection, schedule: Q04DX003 (ip), vehicle: saline with Tween-80
[23] = dose: 400.0 mg/kg/injection, schedule: Q04DX003 (ip), vehicle: saline with Tween-80

Structure (SMILES): CCCCCCCCCCCCNC(=O)Nc1ccc(CC)cc1
- T/C [1]: 87 % of control
- T/C [2]: 97 % of control
- T/C [3]: 94 % of control
- T/C [4]: 96 % of control
- T/C [5]: 93 % of control
- T/C [6]: 101 % of control

Structure (SMILES): CN(CCCCN(C)P(=O)(N1CC1)N1CC1)P(=O)(N1CC1)N1CC1
- T/C (dose: 100.0 mg/kg/injection, schedule: Q01DX001 (ip), vehicle: carboxymethylcellulose (CMC)): 88 % of control

Structure (SMILES): O=[N+]([O-])c1ccccc1O
- T/C [7]: 98 % of control
- T/C [8]: 107 % of control
- T/C [9]: 100 % of control

Structure (SMILES): CCC(C)(C1CCC(=O)CC1)C1CCC(=O)CC1
- T/C [10]: 94 % of control
- T/C [11]: 100 % of control
- T/C [12]: 93 % of control

Structure (SMILES): COc1ccc(/C=N/NC(=O)c2ccc(OC)cc2)cc1
- T/C [2]: 101 % of control
- T/C [4]: 90 % of control
- T/C [6]: 92 % of control

Structure (SMILES): Oc1ccc(C/C=C/c2ccccc2)cc1
- T/C [7]: 98 % of control
- T/C [8]: 96 % of control
- T/C [9]: 102 % of control

Structure (SMILES): CCCCCCCCCCCCNC(=S)NCCCC
- T/C (dose: 50.0 mg/kg/injection, schedule: Q04DX002 (ip), vehicle: Klucel (hydroxypropylcellulose) (HPC)): 91 % of control
- T/C [13]: 95 % of control
- T/C [14]: 98 % of control

Structure (SMILES): N=c1c2ncn(C3OC(CO)C(O)C3O)c2ncn1O (configuration not stated)
- T/C [15]: 101 % of control
- T/C [16]: 111 % of control
- T/C [10]: 103 % of control
- T/C [17]: 105 % of control

Structure (SMILES): Cc1c(Cl)cccc1NS(=O)(=O)c1cccc([N+](=O)[O-])c1
- T/C [7]: 90 % of control
- T/C [8]: 87 % of control

Structure (SMILES): O=C(O)/C=C(/Oc1ccc(Cl)cc1Cl)C(=O)O
- T/C [13]: 97 % of control
- T/C [18]: 100 % of control
- T/C [14]: 87 % of control
- T/C [19]: 100 % of control
- T/C (dose: 400.0 mg/kg/injection, schedule: Q04DX002 (ip), vehicle: Klucel (hydroxypropylcellulose) (HPC)): 110 % of control
- T/C [20]: 100 % of control

Structure (SMILES): CC(C)C1C(C)N1C(C)C (configuration not stated)
- T/C (dose: 25.0 mg/kg/injection, schedule: Q01DX009 (ip), vehicle: Klucel (hydroxypropylcellulose) (HPC)): 107 % of control
- T/C (dose: 50.0 mg/kg/injection, schedule: Q01DX009 (ip), vehicle: Klucel (hydroxypropylcellulose) (HPC)): 100 % of control
- T/C [1]: 104 % of control
- T/C [2]: 95 % of control

Structure (SMILES): C(=C\c1ccccc1)/Nc1ccccc1
- T/C [2]: 97 % of control
- T/C [4]: 96 % of control
- T/C [6]: 92 % of control

Structure (SMILES): O=C(O)c1ccccc1Br
- T/C [18]: 96 % of control
- T/C [19]: 93 % of control

Structure (SMILES): Cc1c(Cl)cccc1NS(=O)(=O)c1ccc(Cl)cc1
- T/C [1]: 117 % of control
- T/C [2]: 102 % of control
- T/C [3]: 111 % of control
- T/C [4]: 119 % of control
- T/C [5]: 101 % of control
- T/C [6]: 110 % of control

Structure (SMILES): Cc1[o+]c(C)c2c(c1C)-c1ccccc1C2=O
- T/C (dose: 50.0 mg/kg/injection, schedule: Q01DX009 (ip), vehicle: saline with Tween-80): 93 % of control
- T/C [7]: 96 % of control
- T/C [21]: 98 % of control
- T/C [8]: 105 % of control
- T/C [22]: 98 % of control
- T/C [23]: 98 % of control

Structure (SMILES): CC(C)C1CC=CCC12C(=O)NC(=O)NC2=O (configuration not stated)
- T/C (dose: 75.0 mg/kg/injection, schedule: Q01DX001 (ip), vehicle: other): 104 % of control
- T/C (dose: 150.0 mg/kg/injection, schedule: Q01DX001 (ip), vehicle: other): 97 % of control
- T/C (dose: 300.0 mg/kg/injection, schedule: Q01DX001 (ip), vehicle: other): 93 % of control

Structure (SMILES): Cc1ccc(Nc2nc(N)nc(N)c2N)cc1
- T/C (dose: 6.0 mg/kg/injection, schedule: Q01DX Z (ip), vehicle: saline): 95 % of control
- T/C (dose: 12.0 mg/kg/injection, schedule: Q01DX Z (ip), vehicle: saline): 97 % of control

Structure (SMILES): CN(C)CCC(O)C(c1ccccc1)c1ccccc1 (configuration not stated)
- T/C [16]: 100 % of control
- T/C [17]: 102 % of control

Structure (SMILES): CC(=O)Nn1cnc2c(=S)nc[nH]c21
- T/C (dose: 20.0 mg/kg/injection, schedule: Q01DX009 (ip), vehicle: saline with Tween-80): 108 % of control
- T/C (dose: 100.0 mg/kg/injection, schedule: Q01DX001 (ip), vehicle: saline with Tween-80): 101 % of control
- T/C (dose: 177.0 mg/kg/injection, schedule: Q01DX001 (ip), vehicle: saline with Tween-80): 106 % of control
- T/C (dose: 200.0 mg/kg/injection, schedule: Q01DX001 (ip), vehicle: saline with Tween-80): 110 % of control
- T/C [8]: 93 % of control
- T/C (dose: 266.0 mg/kg/injection, schedule: Q01DX001 (ip), vehicle: saline with Tween-80): 154 % of control
- T/C (dose: 400.0 mg/kg/injection, schedule: Q01DX001 (ip), vehicle: saline with Tween-80): 118 % of control

Structure (SMILES): O=C1OCC/C1=C\C1CC=CCC1 (configuration not stated)
- T/C (dose: 67.0 mg/kg/injection, schedule: Q04DX003 (ip), vehicle: saline with Tween-80): 96 % of control
- T/C [21]: 88 % of control
- T/C (dose: 150.0 mg/kg/injection, schedule: Q04DX003 (ip), vehicle: saline with Tween-80): 96 % of control

Structure (SMILES): CCCCCCC1CCC(N)CC1 (configuration not stated)
- T/C (dose: 6.25 mg/kg/injection, schedule: Q04DX002 (ip), vehicle: saline with Tween-80): 95 % of control
- T/C (dose: 12.5 mg/kg/injection, schedule: Q04DX002 (ip), vehicle: saline with Tween-80): 95 % of control
- T/C (dose: 25.0 mg/kg/injection, schedule: Q04DX002 (ip), vehicle: saline with Tween-80): 113 % of control

Structure (SMILES): CNC(=O)CS(=O)(=O)c1ccc(C)cc1
- T/C [10]: 97 % of control
- T/C [11]: 95 % of control
- T/C [12]: 93 % of control

Structure (SMILES): NNc1n[nH]c(=O)[nH]c1=O
- T/C [10]: 102 % of control
- T/C [11]: 96 % of control
- T/C [12]: 96 % of control

Structure (SMILES): Cc1ccc(S(=O)(=O)OCCN(CCOS(=O)(=O)c2ccc(C)cc2)c2ccccc2)cc1
- T/C (dose: 7.5 mg/kg/injection, schedule: Q01DX015 (ip), vehicle: carboxymethylcellulose (CMC)): 109 % of control
- T/C [15]: 117 % of control
- T/C (dose: 60.0 mg/kg/injection, schedule: Q01DX015 (ip), vehicle: carboxymethylcellulose (CMC)): 122 % of control
- T/C [10]: 115 % of control

Structure (SMILES): O=[N+]([O-])c1ccc(OCc2ccc(S(=O)(=O)F)cc2Cl)c(Cl)c1
- T/C (dose: 100.0 mg/kg/injection, schedule: Q04DX003 (ip), vehicle: gum acacia): 98 % of control
- T/C (dose: 200.0 mg/kg/injection, schedule: Q04DX003 (ip), vehicle: gum acacia): 95 % of control
- T/C (dose: 400.0 mg/kg/injection, schedule: Q04DX003 (ip), vehicle: gum acacia): 97 % of control

Structure (SMILES): O=C1C(c2c[nH]c3ccc(Br)cc23)=Nc2ccc(Br)cc21
- T/C [10]: 102 % of control
- T/C [11]: 100 % of control
- T/C [12]: 105 % of control

Structure (SMILES): CC(=C/c1ccccc1)/C=N/N=C(N)N
- T/C (dose: 3.8 mg/kg/injection, schedule: Q01DX Z (ip), vehicle: saline): 97 % of control
- T/C (dose: 7.5 mg/kg/injection, schedule: Q01DX Z (ip), vehicle: saline): 94 % of control
- T/C (dose: 15.0 mg/kg/injection, schedule: Q01DX Z (ip), vehicle: saline): 90 % of control

Structure (SMILES): COc1ccc2c(c1)CCC1C2=CC(=O)CC1c1ccco1 (configuration not stated)
- T/C [2]: 102 % of control
- T/C [4]: 93 % of control
- T/C [6]: 88 % of control

Structure (SMILES): Cc1sc2ccc(Cl)cc2[n+]1CCC(=O)O
- T/C [7]: 101 % of control
- T/C [21]: 111 % of control
- T/C [8]: 96 % of control
- T/C [22]: 108 % of control
- T/C [9]: 97 % of control
- T/C [23]: 95 % of control

Structure (SMILES): Cc1cccc(-c2nnc(-c3cccc(C)n3)o2)n1
- T/C (dose: 50.0 mg/kg/injection, schedule: Q04DX002 (ip), vehicle: saline with Tween-80): 92 % of control
- T/C [18]: 95 % of control
- T/C [19]: 92 % of control
- T/C [20]: 87 % of control
